Entries after “also recorded” stand apart in the source; their conditions may differ.
What was measured:
[1] = system: PGP 9.5; assay: PGP 9.5 expression in CYP-CIPN rat hindpaw epidermis, Western immunoblotting; format: in vivo; settings: 8-AG 5 mg/kg/day in drinking water
Description: (§1) Animals. This study employed female Harlan Sprague Dawley (HSD) rats (3-4 mo; Envigo, Indianapolis, IN) and were divided into the following groups: 1) Control, 2) Cyclophosphamide (CYP, 75 mg/kg i.p. in saline vehicle; administered on days 0, 3 and 6); 3) 8-aminoguanine (8-AG; 5 mg/kg/day in drinking water; beginning 2 weeks prior to CYP and continuing until sacrifice (day 8)). The dose of 8-AG is based on our preliminary and published experiments. […] The investigation conforms to the Guide for the Care and Use of Laboratory Animals published by the US National Institutes of Health (NIH Publication No. 85-23, revised 1996). […]
(§2) Western immunoblotting: Following the testing paradigms, rats were deeply anesthetized and tissues (e.g., epidermis, peripheral sciatic nerves, spinal cord segments (L3-L5) and dorsal root ganglia (L3-L5) were removed, and a portion of each preparation was homogenized using Lysing Matrix D in a FASTPREP® 24 instrument (MP Biomedicals, Solon, OH) in HBSS [5 mM KCl, 0.3 mM KH2PO4, 138 mM NaCl, 4 mM NaHO3, 0.3 mM Na2HCO3, 0.3 mM Na2HPO4, 5.6 mM glucose and 10 mM Hepes, pH 7.4 containing complete protease inhibitor cocktail (1 tablet/10 ml, Roche, Indianapolis, IN)] and phosphatase inhibitor cocktail (Sigma, 1:100). […] The protein concentrations of the supernatants were determined using the Pierce BCA protein assay (Thermo Scientific, Rockford, IL). […]

[2] = system: superoxide dismutase (SOD1); assay: SOD1 expression in CYP-CIPN rat peripheral (sciatic) nerves, Western immunoblotting; format: in vivo; settings: 8-AG 5 mg/kg/day in drinking water from 2 weeks prior to CYP
Description: as §1, §2

[3] = system: Mst3b; assay: Mst3b expression in CYP-CIPN rat epidermis, Western immunoblotting; format: in vivo; settings: 8-AG 5 mg/kg/day in drinking water
Description: as §1, §2

[4] = biological target: PNPase (Rattus norvegicus, UniProt P85973); settings: single bolus 5 mg/kg
Description: Rats were anesthetized with urethane (Sigma-Aldrich, St. Louis, MO) at 1.2 g/kg. A continuous infusion of 0.9% sterile saline at 25 ul/min was established via a catheter inserted into the jugular vein. A second catheter to the carotid artery was established in order to collect blood samples (200 μl) which were drawn into a 1 ml syringe prefilled with 50 U heparin. Blood samples were centrifuged at 1300 g for 10 minutes and supernatant (plasma) was then quickly frozen on dry ice and stored at −80° C. until assay. Urine samples were collected by a urethral catheter, centrifuged at 416 g for 10 minutes to remove sediment, and stored as above. Baseline blood samples and urine samples were collected followed by a single bolus of 8-aminoguanine (8-AG, 5 mg/kg) administered through the jugular catheter. Blood samples were collected after 15, 30, 60, 120 and 240 minutes. Urine samples were collected at 1, 2, 4 and 6 hours.
Purines in urine were measured by mass spectrometry using multiple reaction monitoring. Blood samples were diluted 1 to 30 with water, and heavy isotope internal standards were added to each sample. Purines were separated by reversed-phase ultra-performance liquid chromatography (Waters UPLC BEH C18 column, 1.7 μm beads; 2.1×150 mm; Milford, MA) and quantified by multiple reaction monitoring using a triple quadrupole mass spectrometer (TSQ Quantum-Ultra; ThermoFisher Scientific, San Jose, CA) with a heated electrospray ionization source. The mobile phase was a linear gradient flow rate (300 uL/min) of 1% acetic acid in water (pH, 3; mobile phase A) and 100% methanol (mobile phase B), and was delivered with a Waters Acquity ultra-performance liquid chromatographic system. The gradient (A/B) settings were: from 0 to 2 minutes, 99.6%/0.4%; from 2 to 3 minutes, to 98.0%/2.0%; from 3 to 4 minutes, to 85.0%/15.0%; from 4 to 6.5 minutes, to 99.6%/0.4%. The instrument parameters were: sample tray temperature, 10° C.; column temperature, 50° C.; ion spray voltage, 4.0 kilovolts; ion transfer tube temperature, 350° C.; source vaporization temperature, 320° C.; Q2 CID gas, argon at 1.5 mTorr; sheath gas, nitrogen at 60 psi; auxillary gas, nitrogen at 35 psi; Q1/Q3 width, 0.7/0.7 units full-width half-maximum; scan width, 0.6 units; scan time, 0.01 seconds. The following transitions (multiple reaction monitoring) were obtained: guanosine (284→152; RT=2.94 min); ^13C10, ^15N5-guanosine (299→162, RT=2.94 min); guanine (152→135; RT=1.48 min); ^13C2, ^15N-guanine (155→138, RT=1.48 min); hypoxanthine (137→119 m/z, RT=1.86 min); ^13C5-hypoxanthine (142→124 m/z, RT=1.86 min); aminoguanine (167→150 m/z, RT=1.50 min); ^13C2^15N-aminoguanine (170→153 m/z, RT=1.50 min).

[5] = system: PGP 9.5; assay: PGP 9.5 immunocytochemistry of CYP-CIPN rat epidermis (nerve terminals, edema); format: in vivo; settings: fluorescent images, oral 8-AG
Description: Animals. This study employed female Harlan Sprague Dawley (HSD) rats (3-4 mo; Envigo, Indianapolis, IN) and were divided into the following groups: 1) Control, 2) Cyclophosphamide (CYP, 75 mg/kg i.p. in saline vehicle; administered on days 0, 3 and 6); 3) 8-aminoguanine (8-AG; 5 mg/kg/day in drinking water; beginning 2 weeks prior to CYP and continuing until sacrifice (day 8)). The dose of 8-AG is based on our preliminary and published experiments. […] The investigation conforms to the Guide for the Care and Use of Laboratory Animals published by the US National Institutes of Health (NIH Publication No. 85-23, revised 1996). In addition, all tissues (dorsal root ganglion, spinal cord, peripheral nerves and hindpaw epidermis) were removed from isoflurane anesthetized rats and the tissue was used for various experimental approaches as described below. At the end of tissue removal, animals were sacrificed by thoracotomy.
Immunocytochemistry: A portion of tissues (a 3 mm biopsy from the rat hindpaw food pad or epidermis) is placed overnight in fixative (4% PFA) and cryoprotected (30% sucrose-phosphate buffered saline). Fluorescence immunocytochemistry was used to process cross-sections (20 μm) using antibodies (validated in rat tissue) against PGP 9.5 (Invitrogen PA5-29012, neuron specific protein; 1:500 dilution). […]

Chain of PNPase (P85973 whole entry): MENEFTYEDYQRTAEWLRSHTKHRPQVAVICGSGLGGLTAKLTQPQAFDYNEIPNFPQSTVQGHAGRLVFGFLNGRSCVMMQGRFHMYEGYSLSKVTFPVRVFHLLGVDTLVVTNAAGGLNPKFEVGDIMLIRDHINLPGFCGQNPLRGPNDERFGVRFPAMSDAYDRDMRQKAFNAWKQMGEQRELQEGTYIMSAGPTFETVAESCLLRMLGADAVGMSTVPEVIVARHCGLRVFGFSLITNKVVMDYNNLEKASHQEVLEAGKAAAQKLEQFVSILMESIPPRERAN

With Nc1nc2[nH]c(N)nc2c(=O)[nH]1 [8-AG, 8-Aminoguanine] the “effect on CYP-induced decrease in PGP 9.5 expression” value [1] was “restored to control values; also recorded: normalized”, the “effect on CYP-induced decrease in SOD1 expression” value [2] was “normalized; also recorded: prevented” and the “effect on CYP-induced decrease in Mst3b expression” value [3] was “completely restored; also recorded: completely prevented; also recorded: effective in restoring”. For the same compound, the “duration of sustained reduction in the ratio of urine guanosine to urine guanine” value ([4]; rat urine) was over 6 h, the “duration of sustained reduction in urine levels of hypoxanthine” value ([4]; rat urine) was over 6 h and the “hypoxanthine levels in the urine” value ([4]; rat urine) was “decrease”. For the same compound, the “duration of sustained inhibition of PNPase following a bolus dose” value ([4]; rat) was over 6 h, the “effect on CYP-induced gross edema” value [5] was “normalized” and the “effect on CYP-induced neural damage (ragged/damaged fine nerve terminals, PGP 9.5 distribution)” value [5] was “normalized”.

Source: patent US20250127787A1, “METHODS FOR TREATING PERIPHERAL NEUROPATHY” (University of Pittsburgh - Of the Commonwealth System of …, priority 2021, published 2025)
